Literature values as cited in patent US6653352B2, “Pain reliever and method of use” (Medical Merchandising, Inc., priority 1999, dated 2003).

Details: in fats, oils and alcohols

COc1cc(CNC(=O)CCCC/C=C/C(C)C)ccc1O [Capsaicin, N-Vanillyl-8-methyl-6-(E)-noneamide]
solubility: very soluble in fats, oils and alcohols
